For test [1], the system named is p4EBP1, pS6, pPRAS40 and pNDRG1 (TORC1/2 biomarkers). The experiment in a line: Pharmacodynamics in paired tumour biopsies. The conditions noted are these: five patients with paired tumour samples; baseline vs cycle 1, week 2. It is filed as in vivo, human. As to the method:
The tissue PK and PD of sapanisertib were investigated in skin and tumour biopsies. During dose escalation, 3-mm core skin biopsies were collected predose and on any day from 8–15 (3 h postdose) of cycle 1 for immunohistochemistry (IHC) assessment of mTORC1 downstream effects (p4EBP1, pS6) and pNDRG1 (Mosaic Laboratories, Lake Forest, CA). […] Archival tumour tissues for assessment of prognostic markers were collected at baseline.
During dose-escalation, the PD effect of sapanisertib on downstream effectors of TORC1 (p4EBP1 and pS6) and TORC2 (pPRAS40 and pNDRG1) was measured in skin-tissue biopsies from 88 patients collected at baseline and days 8–15 (3 h postdose) of cycle 1. […] PD data in tumour tissue were limited due to the small number of samples. For the five patients with paired tumour samples available for review (biopsies at baseline and cycle 1, week 2), the levels of p4EBP1, pS6, pPRAS40 and pNDRG1 decreased after sapanisertib treatment (Supplementary Fig. 4).

For test [2], the system named is refractory clear-cell RCC. Also noted: method as in earlier work. To be noted: single-agent 30 mg QW; cited from earlier work.

Consider `CC(C)n1nc(-c2ccc3oc(N)nc3c2)c2c(N)ncnc21` [Sapanisertib], for which the “Levels of p4EBP1, pS6, pPRAS40 and pNDRG1 in tumour” value in test [1] is “decreased”. Besides, the Responses entry in test [2] was “no responses”.

Source of the values: PMC7686313, “Phase 1 study of mTORC1/2 inhibitor sapanisertib (TAK-228) in advanced solid tumours, with an expansion phase in renal, endometrial or bladder cancer” (British Journal of Cancer, 2020).
